From patent US4758579A, “Fluoroalkoxy substituted benzimidazoles useful as gastric acid secretion inhibitors” (BYK Gulden Lomberg Chemische Fabrik GmbH, priority 1984, dated 1988)

Tests used:
[1] = system: formation of gastric lesions; test: Antiulcerogenic action in Shay rats: protective action on the stomach (lesion index after pylorus ligature and oral acetylsalicylic acid); type: in vivo; settings: rat, p.o., pylorus ligature (4 hours; Shay rat) + 100 mg/kg acetylsalicylic acid, dose reducing lesion index by 50% vs control, read-out: Protective action on the stomach (rat) inhibition of the lesion index ED50
Procedure: (§1) The compounds according to the invention investigated appear in the following table:
(§2) The influence of the compounds investigated on the formation of gastric lesions triggered by pylorus ligature (4 hours; Shay rat) and oral administration of 100 mg/kg of acetylsalicylic acid on the inhibition of gastric secretion (HCl) in rats during 4 hours is shown in the following table:
(§3) The antiulcerogenic action was tested in Shay rats:
(§4) Ulcers were provoked in rats which had fasted for 24 hours (female, 180-200 g, 4 animals per cage on a high grid) by pylorus ligature (under diethyl ether anesthesia) and oral administration of 100 mg/10 ml/kg of acetylsalicylic acid. The substances to be tested are administered orally (10 ml/kg) one hour before the pylorus ligature. The wound is closed by means of Michel clamps. 4 hours thereafter, the animals are sacrificed under ether anesthesia by atlas dislocation and the stomach is resected. The stomach is opened longitudinally and fixed to a cork plate, after first determining the amount of secreted gastric juice (volume) and later its HCl content (titration with sodium hydroxide solution). The number and size (=diameter) of ulcers present are determined with a stereomicroscope with 10-fold magnification. The product of the degree of severity (according to the following points scale) and number of ulcers serves as the individual lesion index.
ulcer diameter 0.1-1.4 mm
(§5) The reduction in the average lesion index of each treated group compared with that of the control group (=100%) serves as a measure of the antiulcerogenic effect.

[2] = system: HCl secretion in the stomach; test: Inhibition of gastric secretion (HCl) in the stomach of the Shay rat over 4 hours; type: in vivo; settings: total of 4 hours; for ED25 / ED50: po; for ED25: dose reducing HCl secretion by 25% vs control; for ED50: dose reducing HCl secretion by 50% vs control; for % inhibition of HCl secretion: after administration of the antiulcerous ED50
Procedure: as §1, §2
ED25+ and ED50+ = dose which reduces the lesion index and the HCL
secretion (over 4 hours) in the rat stomach by 25% and 50% in the treated
group in comparison with the control group.
(++) = after administration of the antiulcerous ED50
as §3, §4, §5

SMILES	ED50 [1]	ED25 [2]	ED50 [2]	% inhibition of HCl secretion [2]
COc1cnc(C[S+]([O-])c2nc3cc4c(cc3[nH]2)OC(F)(F)O4)cc1OC (centres unmarked) [Serial No. 5, 2,2-Difluoro-6-[(4,5-dimethoxy-2-pyridyl)methylsulfinyl]-5H-[1,3]-dioxolo[4,5-f]benzimidazole]	~1 mg/kg	1 mg/kg	3 mg/kg	25%
COc1cnc(CSc2nc3cc4c(cc3[nH]2)OC(F)(F)O4)cc1OC [Serial No. 4, 2,2-difluoro-6-[(4,5-dimethoxy-2-pyridyl)methylthio]-5H-[1,3]-dioxolo[4,5-f]benzimidazole]	3.5 mg/kg	3 mg/kg	6.5 mg/kg	28%
COc1cnc(C[S+]([O-])c2nc3cc(OC(F)(F)C(F)F)ccc3[nH]2)cc1OC (centres unmarked) [Serial No. 3, 2-[(4,5-dimethoxy-2-pyridyl)methylsulfinyl]-5-(1,1,2,2-tetrafluoroethoxy)-1H-benzimidazole]	0.6 mg/kg	~1 mg/kg	3.4 mg/kg	18%
COc1cnc(C[S+]([O-])c2nc3cc(OC(F)(F)F)ccc3[nH]2)cc1OC (centres unmarked) [Serial No. 1, 2-[(4,5-Dimethoxy-2-pyridyl)methylsulfinyl]-5-trifluoromethoxy-1H-benzimidazole]	0.6 mg/kg	1 mg/kg	~3 mg/kg	15%
COc1cnc(C[S+]([O-])c2nc3cc(OC(F)(F)F)ccc3[nH]2)c(C)c1OC (centres unmarked) [Serial No. 2, 2-[(4,5-Dimethoxy-3-methyl-2-pyridyl)methylsulfinyl]-5-trifluoromethoxy-1H-benzimidazole]	0.8 mg/kg	0.7 mg/kg	1.7 mg/kg	25%
